Assay results from patent publication US8778923B2, “GLP-1 receptor modulators” (Receptos, Inc., priority 2011, dated 2014).
Where a name gives a salt, the structure may show the parent alone.

Target: T1, GLP-1R (Homo sapiens, UniProt P43220)
T1 construct: host or cells: CRE-bla CHO-K1
Assay: EC20 GLP-1(9-36) PAM cAMP assay: dose response of compound in the presence of fixed concentration of GLP-1(9-36)
Format: cell-based
Details: GLP-1R CRE-bla CHO-K1 cells, compound dose response in presence of fixed concentration of GLP-1(9-36)
In short: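 Positive allosteric modulation read as cAMP rise: 12-point compound titration combined with a fixed EC20 level of GLP-1(9-36) on GLP-1R CHO-K1 cells, IBMX present, 30 min at 37 °C. Luminescent HitHunter signal converted to cAMP; nonlinear fit gave EC50 and Emax.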

T1 sequence (P43220 24-463): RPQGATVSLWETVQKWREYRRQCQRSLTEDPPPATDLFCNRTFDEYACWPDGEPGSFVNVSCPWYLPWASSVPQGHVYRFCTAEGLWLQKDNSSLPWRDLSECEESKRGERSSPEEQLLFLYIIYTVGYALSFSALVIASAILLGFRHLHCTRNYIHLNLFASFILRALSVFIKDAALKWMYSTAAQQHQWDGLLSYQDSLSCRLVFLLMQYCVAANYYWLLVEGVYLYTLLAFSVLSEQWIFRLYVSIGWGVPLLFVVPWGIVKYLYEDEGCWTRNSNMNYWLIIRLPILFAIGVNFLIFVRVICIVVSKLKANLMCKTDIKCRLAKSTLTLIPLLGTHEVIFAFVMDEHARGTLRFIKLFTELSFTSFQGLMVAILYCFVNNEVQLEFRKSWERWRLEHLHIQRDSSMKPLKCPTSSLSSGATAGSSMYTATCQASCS
T1 sequence (P01275 100-127 partner limits assumed): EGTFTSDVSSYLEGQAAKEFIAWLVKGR

Structure (SMILES)	EC50 [nM]
CCCCCCCOc1ccc(-c2cnc(-c3ccc(C[C@H](NC(=O)c4ccc(C(C)(C)C)s4)C(=O)N4CCC[C@H]4C(=O)O)cc3)nc2)cc1 [Compound 328]	800 to 2500
CCCCCCCOc1ccc(-c2cnc(-c3ccc(C[C@@H](NC(=O)c4ccc(C(C)(C)C)s4)C(=O)N[C@H](C)C(=O)O)cc3)nc2)cc1 [Compound 375]	< 800
CC(C)Nc1ccc(-c2cnc(-c3ccc(C[C@H](NC(=O)c4ccc(C(C)(C)C)cc4)C(=O)O)cc3)nc2)cc1 [Compound 235]	2500 to 5000
CCCOc1ccc(-c2nc(-c3ccc(C[C@H](NC(=O)c4ccc(C(C)(C)C)cc4)C(=O)O)cc3)no2)cc1 [Compound 34]	2500 to 5000
CCCCCCCOc1ccc(-c2cnc(-c3ccc(C[C@H](NC(=O)c4ccc(C(C)C)cc4)C(=O)N[C@H](CO)C(=O)O)cc3)nc2)cc1 [Compound 315]	800 to 2500
CCCCCCOc1ccc(-c2cnc(-c3ccc(C[C@H](NC(=O)c4ccc(C(C)(C)C)cc4)C(=O)NCC(=O)O)cc3)nc2)cc1 [Compound 318]	< 800
Cc1ccc(-c2nc(-c3ccc(C[C@H](NC(=O)c4ccc(C(C)(C)C)cc4)C(=O)O)cc3)no2)cc1C [Compound 58]	2500 to 5000
CCCCCCCOc1ccc(-c2cnc(-c3ccc(C[C@H](NC(=O)c4cc(C(C)C)on4)C(=O)O)cc3)nc2)cc1 [Compound 135]	800 to 2500
CCCCCCCOc1ccc(-c2cnc(-c3ccc(C[C@H](NC(=O)c4ccc(Cl)cc4)C(=O)O)cc3)nc2)cc1 [Compound 87]	800 to 2500
CC1CCN(c2ccc(-c3nc(-c4ccc(C[C@H](NC(=O)c5ccc(C(C)(C)C)cc5)C(=O)O)cc4)no3)cc2)CC1 [Compound 6]	5000 to 10000
CC(C)Oc1ccc(-c2cnc(-c3ccc(C[C@H](NC(=O)c4ccc(C(C)(C)C)cc4)C(=O)O)cc3)nc2)cc1 [Compound 200]	2500 to 5000
CCCCCCCOc1ccc(-c2c[nH]c(-c3ccc(C[C@H](NC(=O)c4ccc(C(C)(C)C)cc4)C(=O)O)cc3)n2)cc1 [Compound 286, (S)-2-(4-(tert-butyl)benzamido)-3-(4-(4-(4-(heptyloxy)phenyl)-1H-imidazol-2-yl)phenyl)propanoic acid hydrochloride]	2500 to 5000
CC(C)(C)c1ccc(C(=O)N[C@@H](Cc2ccc(-c3ncc(-c4cccc(F)c4)cn3)cc2)C(=O)O)cc1 [Compound 207]	2500 to 5000
CCCCCCCOc1ccc(-c2cnc(-c3ccc(C[C@H](NC(=O)Cc4cc5ccccc5s4)C(=O)O)cc3)nc2)cc1 [Compound 155]	800 to 2500
CCCCCCCOc1ccc(-c2cnc(-c3ccc(C[C@H](NS(=O)(=O)c4ccc(Cl)c(Cl)c4)C(=O)O)cc3)nc2)cc1 [Compound 188]	2500 to 5000
CCc1ccc(C(=O)N[C@@H](Cc2ccc(-c3ncc(-c4ccc(C(C)(C)C)cc4)cn3)cc2)C(=O)O)cc1 [Compound 160]	800 to 2500
CCCc1ccc(-c2nc(-c3ccc(C[C@H](NC(=O)c4ccc(C(C)(C)C)cc4)C(=O)O)cc3)no2)cc1 [Compound 46]	800 to 2500
CCCCCCCOc1ccc(N2CCCN(c3ccc(C[C@H](NC(=O)c4ccc(C(C)(C)C)cc4)C(=O)O)cc3)CC2)cc1 [Compound 268]	800 to 2500
COc1cc(-c2nc(-c3ccc(C[C@H](NC(=O)c4ccc(C(C)(C)C)cc4)C(=O)O)cc3)no2)cc(OC)c1OC [Compound 39]	800 to 2500

Structure (SMILES)	EC50 [nM]
CC(=O)c1ccc(C(=O)N[C@@H](Cc2ccc(-c3ncc(-c4ccc(C(C)(C)C)cc4)cn3)cc2)C(=O)O)cc1 [Compound 176]	5000 to 10000
COc1ccc(-c2cnc(-c3ccc(C[C@H](NC(=O)c4ccc(C(C)(C)C)cc4)C(=O)O)cc3)nc2)cc1OC [Compound 214]	2500 to 5000
CC(C)(C)c1ccc(C(=O)N[C@@H](Cc2ccc(-c3ncc(N4CCC(C(C)(C)C)CC4)cn3)cc2)C(=O)O)cc1 [Compound 253, (S)-2-(4-(tert-butyl)benzamido)-3-(4-(5-(4-(tert-butyl)piperidin-1-yl)pyrimidin-2-yl)phenyl)propanoic acid]	2500 to 5000
CC(C)c1ccc(-c2cnc(-c3ccc(C[C@H](NC(=O)c4ccc(C(C)(C)C)s4)C(=O)O)cc3)nc2)cc1 [Compound 242]	800 to 2500
CCCCCCCOc1ccc(-c2nc(-c3ccc(C[C@H](NC(=O)c4ccc(C(C)(C)C)cc4)C(=O)NC(C)(C)C(=O)O)cc3)no2)cc1 [Compound 70]	5000 to 10000
CCCCCCCOc1ccc(-c2cnc(-c3ccc(C[C@H](NC(=O)c4ccc(OCCCC)cc4)C(=O)O)cc3)nc2)cc1 [Compound 129]	800 to 2500
CCCCCCCOc1ccc(N2CCN(c3ccc(C[C@H](NC(=O)c4ccc(C(C)(C)C)cc4)C(=O)O)cc3)CC2=O)cc1 [Compound 261]	2500 to 5000
COc1cc(OC)cc(-c2ccc(-c3nc(-c4ccc(C[C@H](NC(=O)c5ccc(C(C)(C)C)cc5)C(=O)O)cc4)no3)cc2)c1 [Compound 26]	2500 to 5000
CC(C)(C)c1ccc(C(=O)N[C@@H](Cc2ccc(-c3ncc(-c4cccc(C(C)(C)C)c4)cn3)cc2)C(=O)O)cc1 [Compound 204]	2500 to 5000
COc1cc(OC)cc(-c2nc(-c3ccc(C[C@H](NC(=O)c4ccc(C(C)(C)C)cc4)C(=O)O)cc3)no2)c1 [Compound 38]	800 to 2500
CCCCCCCOc1ccc(-c2nnc(-c3ccc(C[C@H](NC(=O)c4ccc(C(C)(C)C)cc4)C(=O)O)cc3)o2)cc1 [Compound 76]	800 to 2500
CCCCCCCOc1ccc(-c2cnc(-c3ccc(C[C@H](NC(=O)c4ccc(CC(C)(C)C)cc4)C(=O)O)cc3)nc2)cc1 [Compound 112]	800 to 2500
CCCCCCCOc1ccc(-c2cnc(-c3ccc(C[C@H](NC(=O)c4ccc(C(C)C)cc4)C(=O)O)cc3)nc2)cc1 [Compound 94, (S)-3-(4-(5-(4-(heptyloxy)phenyl)pyrimidin-2-yl)phenyl)-2-(4-isopropylbenzamido)propanoic acid]	800 to 2500
Cc1ccccc1-c1ccc(-c2nc(-c3ccc(C[C@H](NC(=O)c4ccc(C(C)(C)C)cc4)C(=O)O)cc3)no2)cc1 [Compound 14]	2500 to 5000
CCCCCCCOc1ccc(-c2cnc(-c3ccc(C[C@H](NC(=O)Cc4ccccc4)C(=O)O)cc3)nc2)cc1 [Compound 88]	5000 to 10000
CC(C)(C)c1ccc(-c2cnc(-c3ccc(C[C@H](NC(=O)c4ccc(O)cc4)C(=O)O)cc3)nc2)cc1 [Compound 175]	< 800
CCCCCCCOc1ccc(-c2cnc(-c3ccc(C[C@H](NC(=O)c4ccc(S(=O)(=O)CC)cc4)C(=O)O)cc3)nc2)cc1 [Compound 127]	800 to 2500
CCCCCCCOc1ccc(-c2cnc(-c3ccc(C[C@H](NS(=O)(=O)c4ccc(C(F)(F)F)cc4)C(=O)O)cc3)nc2)cc1 [Compound 190]	2500 to 5000
CC(C)(C)c1ccc(C(=O)N[C@@H](Cc2ccc(-c3noc(-c4ccc(-c5ccccc5)cc4)n3)cc2)C(=O)O)cc1 [Compound 4]	5000 to 10000

Structure (SMILES)	EC50 [nM]
CC(C)(C)Oc1ccc(-c2nc(-c3ccc(C[C@H](NC(=O)c4ccc(C(C)(C)C)cc4)C(=O)O)cc3)no2)cc1 [Compound 56]	2500 to 5000
CCCCCCCOc1ccc(-c2cnc(-c3ccc(C[C@H](NC(=O)c4ccc(C(C)(C)C)s4)C(=O)NC(CN(C)C)C(=O)O)cc3)nc2)cc1 (some centres unmarked) [Compound 337]	800 to 2500
CSCC[C@@H](NC(=O)[C@H](Cc1ccc(-c2ncc(-c3ccc(C(C)(C)C)cc3)cn2)cc1)NC(=O)c1ccc(C(C)(C)C)s1)C(=O)O [Compound 368]	< 800
CCCCCCCOc1ccc(-c2nc(-c3ccc(CC[C@H](NC(=O)c4ccc(C(C)(C)C)cc4)C(=O)O)cc3)no2)cc1 [Compound 73]	800 to 2500
CNc1ccc(-c2cnc(-c3ccc(C[C@H](NC(=O)c4ccc(C(C)(C)C)cc4)C(=O)O)cc3)nc2)cc1 [Compound 233]	2500 to 5000
CCCCCCCOc1ccc(-c2cnc(-c3ccc(C[C@H](NC(=O)c4ccc(C(C)=O)cc4)C(=O)O)cc3)nc2)cc1 [Compound 113]	800 to 2500
CCCCCCCOc1ccc(-c2nc(-c3ccc(C[C@H](NC(=O)c4ccc(C(C)(C)C)cc4)C(=O)O)cc3)cs2)cc1 [Compound 80]	800 to 2500
CCCCCCCOc1ccc(-c2cnc(-c3ccc(C[C@H](NC(=O)c4cccc(N5CCCC5)c4)C(=O)O)cc3)nc2)cc1 [Compound 92]	800 to 2500
CCCCCCCOc1ccc(N2CCN(c3ccc(C[C@H](NC(=O)c4ccc(C(C)(C)C)cc4)C(=O)O)cc3)CC2)cc1 [Compound 267]	800 to 2500
CC(C)(C)c1ccc(C(=O)N[C@@H](Cc2ccc(-c3noc(-c4ccc(-c5cccc(F)c5)cc4)n3)cc2)C(=O)O)cc1 [Compound 20]	800 to 2500
CN(CCO)c1ccc(-c2nc(-c3ccc(C[C@H](NC(=O)c4ccc(C(C)(C)C)cc4)C(=O)O)cc3)no2)cc1 [Compound 55]	2500 to 5000
CC(C)(C)c1ccc(C(=O)N[C@@H](Cc2ccc(-c3ncc(-c4ccccc4)cn3)cc2)C(=O)O)cc1 [Compound 196]	2500 to 5000
CCCCCCCOc1ccc(-c2cnc(-c3ccc(C[C@H](NS(=O)(=O)c4ccccc4)C(=O)O)cc3)nc2)cc1 [Compound 184]	800 to 2500
CC(C)(C)c1ccc(C(=O)N[C@@H](Cc2ccc(-c3ncc(-c4ccc(C(F)(F)F)cc4)cn3)cc2)C(=O)O)cc1 [Compound 209]	800 to 2500
CC(C)(C)c1ccc(-c2cnc(-c3ccc(C[C@@H](NC(=O)c4ccc(C(C)(C)C)s4)C(=O)NCC(=O)O)cc3)nc2)cc1 [Compound 373]	800 to 2500
CCCCCCCOc1ccc(-c2cnc(-c3ccc(C[C@H](NC(=O)c4ccc(C#N)cc4)C(=O)O)cc3)nc2)cc1 [Compound 98]	800 to 2500
CCCCCCCOc1ccc(-c2ncc(-c3ccc(CC(NC(=O)c4ccc(C(C)(C)C)cc4)C(=O)O)cc3)s2)cc1 (centres unmarked) [Compound 82]	800 to 2500
Cc1ccc(-c2ccc(-c3nc(-c4ccc(C[C@H](NC(=O)c5ccc(C(C)(C)C)cc5)C(=O)O)cc4)no3)cc2)cc1 [Compound 3]	5000 to 10000
